Data taken from patent US20240425479A1, “HALO-SUBSTITUTED AMINO AZA-HETEROARYL COMPOUNDS AS INHIBITORS OF THE HAEMATOPOIETIC PROGENITOR KINASE 1 (HPK1)” (priority 2021, published 2024).
Structures can show the parent of a compound that is named as a salt.

Key:
[1] = biological target: T1, Recombinant (1-346) HPK1 (h) (Homo sapiens, UniProt Q92918); experiment: HPK1 human STE kinase enzymatic radiometric assay; format: biochemical; settings: read-out: HPK1 IC50 nM Range
T1 construct: Recombinant (1-346) HPK1 (h) is incubated with 8 mM MOPS pH 7.0
T1 sequence (Q92918 1-346): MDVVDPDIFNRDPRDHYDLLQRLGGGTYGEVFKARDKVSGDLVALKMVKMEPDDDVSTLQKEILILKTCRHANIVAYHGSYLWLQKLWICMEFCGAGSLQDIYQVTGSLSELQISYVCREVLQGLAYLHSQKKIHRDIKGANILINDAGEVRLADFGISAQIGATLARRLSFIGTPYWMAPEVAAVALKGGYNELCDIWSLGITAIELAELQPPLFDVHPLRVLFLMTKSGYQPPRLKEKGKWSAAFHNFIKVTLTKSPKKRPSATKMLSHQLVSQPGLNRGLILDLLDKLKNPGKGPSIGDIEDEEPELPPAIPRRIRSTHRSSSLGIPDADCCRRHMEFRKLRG
Procedure, shortened: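 Recombinant HPK1 (1-346) incubated 40 min at RT with 0.33 mg/mL myelin basic protein and [gamma-33P]-ATP in 8 mM MOPS pH 7.0, 0.2 mM EDTA, 10 mM Mg acetate; reaction started with Mg/ATP. Stopped with 0.5% phosphoric acid, spotted on P30 filtermat, washed, scintillation counted. Compounds tested as 9-point 3-fold dilutions.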

Lck (h) = Lck (h) (Homo sapiens, UniProt P06239); experiment: Lck human STE kinase enzymatic radiometric assay; format: biochemical; settings: for IC50: read-out: Lck IC50 nM Range
Experimental: (b) Lck Human STE Kinase Enzymatic Radiometric Assay
Lck (h) is incubated with 50 mM Tris pH 7.5, 0.1 mM EGTA, 0.1 mM Na3VO4, 250 uM KVEKIGEGTYGVVYK (Cdc2 peptide), 10 mM MgAcetate and [gamma-33P]-ATP (specific activity and concentration as required). The reaction is initiated by the addition of the Mg/ATP mix. After incubation for 40 minutes at room temperature, the reaction is stopped by the addition of phosphoric acid to a concentration of 0.5%, 10 μL of the reaction is then spotted onto a P30 filtermat and washed four times for 4 minutes in 0.425% phosphoric acid and once in methanol prior to drying and scintillation counting. For more details on the kinase assay procedures see: Gao, Y. et. al.; Biochem J., 451 (2): 313-328, 2013.

Lck (h), sequence (P06239 whole entry): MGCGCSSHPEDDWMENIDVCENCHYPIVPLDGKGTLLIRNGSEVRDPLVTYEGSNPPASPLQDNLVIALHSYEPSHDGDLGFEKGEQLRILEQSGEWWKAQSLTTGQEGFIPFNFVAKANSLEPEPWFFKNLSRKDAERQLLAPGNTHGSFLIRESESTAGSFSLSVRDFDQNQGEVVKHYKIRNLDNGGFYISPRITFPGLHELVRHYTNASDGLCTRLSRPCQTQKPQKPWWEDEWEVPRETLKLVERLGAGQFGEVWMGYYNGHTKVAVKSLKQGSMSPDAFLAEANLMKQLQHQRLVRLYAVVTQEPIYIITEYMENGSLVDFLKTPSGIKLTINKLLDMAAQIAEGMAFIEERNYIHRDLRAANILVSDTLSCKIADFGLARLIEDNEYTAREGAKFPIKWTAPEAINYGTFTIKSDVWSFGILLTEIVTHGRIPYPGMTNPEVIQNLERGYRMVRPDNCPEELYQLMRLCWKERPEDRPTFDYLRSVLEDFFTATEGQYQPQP

SMILES: CC(C1CC1)N1CCN(c2ccc(-c3nc(-c4cc(F)c5c(c4)CCNC5=O)c(N)nc3F)cc2)CC1 (single isomer, unassigned) [Example I-29, 6-(3-amino-6-(4-(4-(1-cyclopropylethyl)piperazin-1-yl)phenyl)-5-fluoropyrazin-2-yl)-8-fluoro-3,4-dihydroisoquinolin-1(2H)-one]
- IC50 [1]: 0.1 to 10 nM
- IC50 (Lck (h)): 101 to 1000 nM

SMILES: CC(C1CC1)N1CCN(c2ccc(-c3nc(-c4cc(F)c5c(c4)CCNC5=O)c(N)nc3F)cc2)CC1 (single isomer, unassigned) [Example I-30, 6-(3-amino-6-(4-(4-(1-cyclopropylethyl)piperazin-1-yl)phenyl)-5-fluoropyrazin-2-yl)-8-fluoro-3,4-dihydroisoquinolin-1(2H)-one]
- IC50 [1]: 0.1 to 10 nM
- IC50 (Lck (h)): 101 to 1000 nM

SMILES: CC(C)N1CCN(c2ccc(-c3nc(-c4ccc5c(c4)CCNC5=O)c(N)nc3F)cc2)CC1 [Example I-1, 6-(3-amino-5-fluoro-6-(4-(4-isopropylpiperazin-1-yl)phenyl)pyrazin-2-yl)-3,4-dihydroisoquinolin-1(2H)-one]
- IC50 [1]: 0.1 to 10 nM
- IC50 (Lck (h)): > 1000 nM

SMILES: CC(C)N1CCN(c2ccc(-c3nc(-c4cc5c(cc4F)C(=O)NCC5)c(N)nc3F)cc2)CC1 [Example I-2, 6-(3-amino-5-fluoro-6-(4-(4-isopropylpiperazin-1-yl)phenyl)pyrazin-2-yl)-7-fluoro-3,4-dihydroisoquinolin-1(2H)-one]
- IC50 [1]: 0.1 to 10 nM
- IC50 (Lck (h)): > 1000 nM

SMILES: CN1C[C@H]2C[C@@]2(c2ccc(-c3nc(-c4cc5c(cc4F)C(=O)NCC5)c(N)nc3F)cc2)C1 [Example I-3, 6-(3-amino-5-fluoro-6-(4-((1R,5S)-3-methyl-3-azabicyclo[3.1.0]hexan-1-yl)phenyl)pyrazin-2-yl)-7-fluoro-3,4-dihydroisoquinolin-1(2H)-one]
- IC50 [1]: 0.1 to 10 nM
- IC50 (Lck (h)): > 1000 nM

SMILES: CC(C)N1C[C@H]2C[C@@]2(c2ccc(-c3nc(-c4cc5c(cc4F)C(=O)NCC5)c(N)nc3F)cc2)C1 [Example I-4, 6-(3-amino-5-fluoro-6-(4-((1R,5S)-3-isopropyl-3-azabicyclo[3.1.0]hexan-1-yl)phenyl)pyrazin-2-yl)-7-fluoro-3,4-dihydroisoquinolin-1(2H)-one]
- IC50 [1]: 0.1 to 10 nM
- IC50 (Lck (h)): > 1000 nM

SMILES: CN1C[C@@H]2C[C@]2(c2ccc(-c3nc(-c4cc5c(cc4F)C(=O)NCC5)c(N)nc3F)cc2)C1 [Example I-5, 6-(3-amino-5-fluoro-6-(4-((1S,5R)-3-methyl-3-azabicyclo[3.1.0]hexan-1-yl)phenyl)pyrazin-2-yl)-7-fluoro-3,4-dihydroisoquinolin-1(2H)-one]
- IC50 [1]: 0.1 to 10 nM
- IC50 (Lck (h)): > 1000 nM

SMILES: CC(C)N1C[C@@H]2C[C@]2(c2ccc(-c3nc(-c4cc5c(cc4F)C(=O)NCC5)c(N)nc3F)cc2)C1 [Example I-6, 6-(3-amino-5-fluoro-6-(4-((1S,5R)-3-isopropyl-3-azabicyclo[3.1.0]hexan-1-yl)phenyl)pyrazin-2-yl)-7-fluoro-3,4-dihydroisoquinolin-1(2H)-one]
- IC50 [1]: 0.1 to 10 nM
- IC50 (Lck (h)): 101 to 1000 nM

SMILES: CC(C)N1CCN(c2ccc(-c3nc(-c4ccc5c(c4)CCNC5=O)c(N)nc3Cl)cc2)CC1 [Example I-7, 6-(3-amino-5-chloro-6-(4-(4-isopropylpiperazin-1-yl)phenyl)pyrazin-2-yl)-3,4-dihydroisoquinolin-1(2H)-one]
- IC50 [1]: 11 to 100 nM
- IC50 (Lck (h)): > 1000 nM

SMILES: CC(C)N1CCN(c2ccc(-c3nc(-c4cc5c(cc4F)C(=O)NCC5)c(N)nc3Cl)cc2)CC1 [Example I-8, 6-(3-amino-5-chloro-6-(4-(4-isopropylpiperazin-1-yl)phenyl)pyrazin-2-yl)-7-fluoro-3,4-dihydroisoquinolin-1(2H)-one]
- IC50 [1]: 11 to 100 nM
- IC50 (Lck (h)): > 1000 nM

SMILES: CC(C)N1CC=C(c2ccc(-c3nc(-c4cc5c(cc4F)C(=O)NCC5)c(N)nc3F)cc2)CC1 [Example I-9, 6-(3-amino-5-fluoro-6-(4-(1-isopropyl-1,2,3,6-tetrahydropyridin-4-yl)phenyl)pyrazin-2-yl)-7-fluoro-3,4-dihydroisoquinolin-1(2H)-one]
- IC50 [1]: 0.1 to 10 nM
- IC50 (Lck (h)): 101 to 1000 nM

SMILES: CC(C)N1CCC(c2ccc(-c3nc(-c4cc(F)c5c(c4)CCNC5=O)c(N)nc3F)cc2)CC1 [Example I-10, 6-(3-amino-5-fluoro-6-(4-(1-isopropylpiperidin-4-yl)phenyl)pyrazin-2-yl)-8-fluoro-3,4-dihydroisoquinolin-1(2H)-one]
- IC50 [1]: 0.1 to 10 nM
- IC50 (Lck (h)): 101 to 1000 nM

SMILES: CNCC1Cc2cc(-c3nc(-c4ccc(N5CCN(C(C)C)CC5)cc4)c(F)nc3N)ccc2C(=O)N1 (stereo not drawn) [Example I-11, 6-(3-amino-5-fluoro-6-(4-(4-isopropylpiperazin-1-yl)phenyl)pyrazin-2-yl)-3-((methylamino)methyl)-3,4-dihydroisoquinolin-1(2H)-one]
- IC50 [1]: 0.1 to 10 nM
- IC50 (Lck (h)): > 1000 nM

SMILES: CNCC1Cc2cc(-c3nc(-c4ccc(N5CCOCC5)cc4)c(F)nc3N)ccc2C(=O)N1 (stereo not drawn) [Example I-12, 6-(3-amino-5-fluoro-6-(4-morpholinophenyl)pyrazin-2-yl)-3-((methylamino)methyl)-3,4-dihydroisoquinolin-1(2H)-one]
- IC50 [1]: 0.1 to 10 nM
- IC50 (Lck (h)): > 1000 nM

SMILES: Nc1nc(F)c(-c2ccc(C3CCN(CC4CC4)CC3)cc2)nc1-c1cc(F)c2c(c1)CCNC2=O [Example I-13, 6-(3-amino-6-(4-(1-(cyclopropylmethyl)piperidin-4-yl)phenyl)-5-fluoropyrazin-2-yl)-8-fluoro-3,4-dihydroisoquinolin-1(2H)-one Formate]
- IC50 [1]: 0.1 to 10 nM
- IC50 (Lck (h)): > 1000 nM

SMILES: CC(C)N1CCN(c2ccc(-c3nc(-c4cc(F)c5c(c4)CCNC5=O)c(N)nc3F)cc2)CC1 [Example I-14, 6-(3-amino-5-fluoro-6-(4-(4-isopropylpiperazin-1-yl)phenyl)pyrazin-2-yl)-8-fluoro-3,4-dihydroisoquinolin-1(2H)-one]
- IC50 [1]: 0.1 to 10 nM
- IC50 (Lck (h)): 101 to 1000 nM

SMILES: CC(C)N1C[C@H]2C[C@@]2(c2ccc(-c3nc(-c4cc(F)c5c(c4)CCNC5=O)c(N)nc3F)cc2)C1 [Example I-15, 6-(3-amino-5-fluoro-6-(4-((1R,5S)-3-isopropyl-3-azabicyclo[3.1.0]hexan-1-yl)phenyl)pyrazin-2-yl)-8-fluoro-3,4-dihydroisoquinolin-1(2H)-one formate]
- IC50 [1]: 0.1 to 10 nM
- IC50 (Lck (h)): > 1000 nM

SMILES: CCN(C)Cc1cc(-c2nc(-c3ccc4c(=O)[nH]cc(F)c4c3)c(N)nc2F)ccc1OC [Example I-300, 6-(3-amino-6-(3-((ethyl(methyl)amino)methyl)-4-methoxyphenyl)-5-fluoropyrazin-2-yl)-4-fluoroisoquinolin-1(2H)-one]
- IC50 [1]: 11 to 100 nM

SMILES: CCN(C)Cc1cc(-c2nc(-c3ccc4c(=O)[nH]cc(C)c4c3)c(N)nc2F)ccc1OC [Example I-301, 6-(3-amino-6-(3-((ethyl(methyl)amino)methyl)-4-methoxyphenyl)-5-fluoropyrazin-2-yl)-4-methylisoquinolin-1(2H)-one]
- IC50 [1]: 11 to 100 nM

SMILES: CC(c1cc(-c2nc(-c3ccc4c(=O)[nH]cc(F)c4c3)c(N)nc2F)ccc1O)N(C)C (stereo not drawn) [Example I-302, 6-(3-amino-6-(3-(1-(dimethylamino)ethyl)-4-hydroxyphenyl)-5-fluoropyrazin-2-yl)-4-fluoroisoquinolin-1(2H)-one]
- IC50 [1]: 0.1 to 10 nM

SMILES: CCN(C)Cc1cc(-c2nc(-c3cc4c(cc3F)C(=O)NCC4)c(N)nc2F)cc(C)c1OC [Example I-303, 6-(3-amino-6-(3-((ethyl(methyl)amino)methyl)-4-methoxy-5-methylphenyl)-5-fluoropyrazin-2-yl)-7-fluoro-3,4-dihydroisoquinolin-1(2H)-one]
- IC50 [1]: 0.1 to 10 nM

SMILES: Cc1c[nH]c(=O)c2ccc(-c3nc(-c4ccc(O)c(C(C)N(C)C)c4)c(F)nc3N)cc12 (stereo not drawn) [Example I-304, 6-(3-amino-6-(3-(1-(dimethylamino)ethyl)-4-hydroxyphenyl)-5-fluoropyrazin-2-yl)-4-methylisoquinolin-1(2H)-one]
- IC50 [1]: 0.1 to 10 nM

SMILES: CN(C)Cc1cc(-c2nc(-c3ccc4c(=O)[nH]cc(F)c4c3)c(N)nc2F)ccc1O [Example I-305, 6-(3-amino-6-(3-((dimethylamino)methyl)-4-hydroxyphenyl)-5-fluoropyrazin-2-yl)-4-fluoroisoquinolin-1(2H)-one]
- IC50 [1]: 0.1 to 10 nM

SMILES: Cc1c[nH]c(=O)c2ccc(-c3nc(-c4ccc(O)c(CN(C)C)c4)c(F)nc3N)cc12 [Example I-306, 6-(3-amino-6-(3-((dimethylamino)methyl)-4-hydroxyphenyl)-5-fluoropyrazin-2-yl)-4-methylisoquinolin-1(2H)-one]
- IC50 [1]: 11 to 100 nM

SMILES: Nc1nc(F)c(-c2ccc(N3CCOCC3)cc2)nc1-c1ccc2c(c1)CCNC2=O [drawing 1319]
- LcK IC50/HPK IC50 selectivity (Lck (h); ratio Lck IC50 / HPK1 IC50): >1666
